The record followed here is US20080248112A1 (priority 2007, published 2008).

Structures are written as SMILES. Entries after “also recorded” stand apart in the source; their conditions may differ.

This experiment relates to glycosylated hemoglobin level (HbAlC). The experiment is described as follows: Clinical study of long term administration of ranolazine: HbA1C in patients having coronary disease. The experiment is classed as in vivo, human. From the text: Baseline is in-hospital visit prior to hospitalization.

`COc1ccccc1OCC(O)CN1CCN(CC(=O)Nc2c(C)cccc2C)CC1` (racemic) [Ranolazine, (±)-N-(2,6-dimethylphenyl)-4-[2-hydroxy-3-(2-methoxyphenoxy)-propyl]-1-piperazineacetamide]: the “Number of patients with HbA1c ≧7%” value is 63 (Diabetes at enrollment, n = 1098, Month 16); 92 (No Diabetes at enrollment, n = 2170, Final Visit); 78 (No Diabetes at enrollment, n = 2170, Month 4); 72 (No Diabetes at enrollment, n = 2170, Month 8); 21 (No Diabetes at enrollment, n = 2170, Month 16). Also, the “Effect on HbAlc levels” value is on record as “HbAlc lowering effect on all patients treated; also recorded: significantly lowers serum HbAlC levels” (all patients treated, FIGS. 1 and 2); “reduction in the amount of HbAlC levels” (diabetic patients, FIG. 2); “reduction in the amount of HbAlC levels” (non-diabetic patients, FIG. 2).
